Measured values reported in patent US8952024B2, “Herbicidal pyrimidone derivatives” (E I du Pont de Nemours and Company, priority 2009, dated 2015).

Tests used:
Assay type in all cases: in vivo
[1] = tested on: ragweed (common ragweed, Ambrosia elatior); test: Test D pre-/postemergence plant response
Description: (§1) Seeds of plant species selected from bermudagrass (Cynodon dactylon), Surinam grass (Brachiaria decumbens), large crabgrass (Digitaria sanguinalis), green foxtail (Setaria viridis), goosegrass (Eleusine indica), johnsongrass (Sorghum halepense), kochia (Kochia scoparia), morningglory (pitted morningglory, Ipomoea lacunosa), nutsedge (purple nutsedge, Cyperus rotundus), ragweed (common ragweed, Ambrosia elatior), black mustard (Brassica nigra), guineagrass (Panicum maximum), dallisgrass (Paspalum dilatatum), barnyardgrass (Echinochloa crus-galli), sandbur (southern sandbur, Cenchrus echinatus), sowthistle (common sowthistle, Sonchus oleraceous), prickly sida (Sida spinosa), Italian ryegrass (Lolium multiflorum), purslane (common purslane, Portulaca oleracea), signalgrass (broadleaf signalgrass, Brachiaria platyphylla), groundsel (common groundsel, Senecio vulgaris), chickweed (common chickweed, Stellaria media), dayflower (Virginia (VA) dayflower, Commelina virginica), bluegrass (annual bluegrass, Poa annua), naked crabgrass (Digitaria nuda), itchgrass (Rottboellia cochinchinensis), quackgrass (Elytrigia repens), field bindweed (Convolvulus arvensis), spanishneedles (Bidens bipinnata), mallow (common mallow, Malva sylvestris) and Russian thistle (Salsola kali), were planted into a blend of loam soil and sand and treated preemergence with test chemicals formulated in a non-phytotoxic solvent mixture which included a surfactant. At the same time, plants from these weed species were treated with postemergence applications of the test chemicals formulated in the same manner. Plants ranged in height from 2 to 18 cm (1- to 4-leaf stage) for postemergence treatments.
(§2) Treated plants and controls were maintained in a greenhouse for 14 to 21 days, after which time all species were visually evaluated and compared to controls. Plant response ratings, summarized in Table D, are based on a scale of 0 to 100 where 0 is no effect and 100 is complete control. A dash (-) response means no test result.

[2] = tested on: prickly sida (Sida spinosa); test: Test D pre-/postemergence plant response
Description: as §1, §2

[3] = tested on: spanishneedles (Bidens bipinnata); test: Test D pre-/postemergence plant response
Description: as §1, §2

[4] = tested on: Russian thistle (Salsola kali); test: Test D pre-/postemergence plant response
Description: as §1, §2

[5] = tested on: purslane (common purslane, Portulaca oleracea); test: Test D pre-/postemergence plant response
Description: as §1, §2

[6] = tested on: ducksalad (Heteranthera limosa); test: Test B flooded paddy test; settings: for Plant response rating, Flood, Ducksalad: 250 g ai/ha, flooded paddy test, visual rating on 0 to 100 scale (0 no effect, 100 complete control) after 13 to 15 days; for Plant response rating, Ducksalad: Flood (flooded paddy test), 13 to 15 days; for Ducksalad plant response rating: Flood, scale 0 to 100 (0 no effect, 100 complete control)
Procedure, shortened: (§3)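 2-leaf seedlings; pots flooded 3 cm over soil at treatment; cpd dosed into floodwater, depth kept constant. Greenhouse 13–15 d. Visual rating vs untreated controls, 0 = no effect, 100 = complete control.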

[7] = tested on: barnyardgrass (Echinochloa crus-galli); test: Test B flooded paddy test; settings: for Plant response rating, Flood, Barnyardgrass: 250 g ai/ha, flooded paddy test, visual rating on 0 to 100 scale (0 no effect, 100 complete control) after 13 to 15 days; for Plant response rating, Barnyardgrass: Flood (flooded paddy test), 13 to 15 days; for Barnyardgrass plant response rating: Flood, scale 0 to 100 (0 no effect, 100 complete control)
Procedure, shortened: as §3

[8] = tested on: sunflower (common oilseed sunflower, Helianthus annuus); test: Test B pre-/postemergence plant response; settings: Preemergence
Procedure, shortened: (§4)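 Greenhouse herbicide screen. Pre- and postemergence (1- to 4-leaf) spray of compound in solvent/surfactant mixture; loam–sand soil for pre, peat/vermiculite medium for post. Visual control rating 0–100 at 13 to 15 days after treatment.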

[9] = tested on: galium (catchweed bedstraw, Galium aparine); test: Test B pre-/postemergence plant response; settings: Preemergence
Procedure, shortened: as §4

[10] = tested on: nightshade (eastern black nightshade, Solanum ptycanthum); test: Test B pre-/postemergence plant response; settings: Preemergence
Procedure, shortened: as §4

[11] = Postemergence, 31 g ai/ha, scale 0 to 100
[12] = Postemergence, 125 g ai/ha, scale 0 to 100 (0 no effect, 100 complete control)
[13] = Postemergence, 16 g ai/ha, scale 0 to 100
[14] = Preemergence, 16 g ai/ha, scale 0 to 100, 0 no effect, 100 complete control
[15] = Preemergence, 31 g ai/ha, scale 0 to 100 (0 no effect, 100 complete control)
[16] = Preemergence, 125 g ai/ha, scale 0 to 100
[17] = Postemergence, 62 g ai/ha, scale 0 to 100 (0 no effect, 100 complete control)
[18] = Preemergence, 62 g ai/ha, scale 0 to 100
[19] = 31 g ai/ha, scale of 0 to 100 where 0 is no effect and 100 is complete control
[20] = 62 g ai/ha, scale of 0 to 100 where 0 is no effect and 100 is complete control
[21] = 125 g ai/ha, scale 0 to 100, 0 is no effect, 100 is complete control
[22] = 31 g ai/ha, scale 0 to 100 (0 no effect, 100 complete control)
[23] = 62 g ai/ha, scale 0 to 100 (0 no effect, 100 complete control)
[24] = 125 g ai/ha, scale 0 to 100, 0 no effect, 100 complete control
[25] = Postemergence, 250 g ai/ha, scale 0 to 100 (0 no effect, 100 complete control)

O=C1CCCC(O)=C1C(=O)c1cnc(-c2ccccc2)n(CC2CCCO2)c1=O (centres unmarked) [Compound 59]
Plant response rating, Ragweed [1, 11]: 70 | Plant response rating, Ragweed [1, 12]: 80 | Plant response rating, Ragweed [1, 13]: 70 | Plant response rating, Ragweed [1, 14]: 0 | Plant response rating, Ragweed [1, 15]: 50 | Plant response rating, Ragweed [1, 16]: 100 | Plant response rating, Prickly Sida [2, 11]: 40 | Plant response rating, Prickly Sida [2, 17]: 70 | Plant response rating, Prickly Sida [2, 12]: 70 | Plant response rating, Prickly Sida [2, 13]: 40 | Plant response rating, Prickly Sida [2, 14]: 0 | Plant response rating, Prickly Sida [2, 15]: 0 | Plant response rating, Prickly Sida [2, 18]: 5 | Plant response rating, Prickly Sida [2, 16]: 65 | Plant response rating, Spanishneedles [3, 11]: 50 | Plant response rating, Spanishneedles [3, 17]: 70 | Plant response rating, Spanishneedles [3, 12]: 70 | Plant response rating, Spanishneedles [3, 13]: 30 | Plant response rating, Spanishneedles [3, 14]: 0 | Plant response rating, Spanishneedles [3, 15]: 0 | Plant response rating, Spanishneedles [3, 16]: 90 | Plant response rating, Russian Thistle [4, 12]: 65 | Plant response rating, Russian Thistle [4, 15]: 90 | Plant response rating, Russian Thistle [4, 16]: 100 | Plant response rating, Purslane [5, 11]: 35 | Plant response rating, Purslane [5, 17]: 35 | Plant response rating, Purslane [5, 12]: 50 | Plant response rating, Purslane [5, 13]: 35 | Plant response rating, Purslane [5, 14]: 65 | Plant response rating, Purslane [5, 15]: 100 | Plant response rating, Purslane [5, 18]: 100 | Plant response rating, Purslane [5, 16]: 100 | Plant response rating, Flood, Ducksalad [6]: 40 | Plant response rating, Ducksalad [6, 19]: 0 | Plant response rating, Ducksalad [6, 20]: 0 | Plant response rating, Ducksalad [6, 21]: 0 | Plant response rating, Flood, Barnyardgrass [7]: 45 | Plant response rating, Barnyardgrass [7, 19]: 0 | Plant response rating, Barnyardgrass [7, 20]: 0 | Plant response rating, Barnyardgrass [7, 21]: 20 | Plant response rating, Sunflower [8, 22]: 55 | Plant response rating, Sunflower [8, 23]: 65 | Plant response rating, Sunflower [8, 24]: 70 | Plant response rating, Galium ([9]; 250 g ai/ha, 0 to 100 scale): 98 | Plant response rating, Galium [9, 22]: 0 | Plant response rating, Galium [9, 23]: 90 | Plant response rating, Galium [9, 24]: 95 | Plant response rating, Nightshade [10, 22]: 95 | Plant response rating, Nightshade [10, 23]: 98 | Plant response rating, Nightshade [10, 24]: 100

COCCn1c(-c2cccc(F)c2)ncc(C(=O)C2=C(O)C3CCC(C3)C2=O)c1=O (centres unmarked) [Compound 235]
Plant response rating, Ragweed [1, 11]: 70 | Plant response rating, Ragweed [1, 17]: 70 | Plant response rating, Ragweed [1, 12]: 80 | Plant response rating, Ragweed [1, 25]: 80 | Plant response rating, Prickly Sida [2, 11]: 65 | Plant response rating, Prickly Sida [2, 17]: 65 | Plant response rating, Prickly Sida [2, 12]: 70 | Plant response rating, Prickly Sida [2, 25]: 75 | Plant response rating, Spanishneedles [3, 11]: 65 | Plant response rating, Spanishneedles [3, 17]: 70 | Plant response rating, Spanishneedles [3, 12]: 80 | Plant response rating, Spanishneedles [3, 25]: 85 | Plant response rating, Russian Thistle [4, 11]: 30 | Plant response rating, Russian Thistle [4, 17]: 30 | Plant response rating, Russian Thistle [4, 12]: 50 | Plant response rating, Russian Thistle [4, 25]: 60 | Plant response rating, Purslane [5, 11]: 60 | Plant response rating, Purslane [5, 17]: 60 | Plant response rating, Purslane [5, 12]: 60 | Plant response rating, Purslane [5, 25]: 70 | Plant response rating, Flood, Ducksalad [6]: 100 | Plant response rating, Ducksalad [6, 20]: 95 | Plant response rating, Ducksalad [6, 21]: 100 | Ducksalad plant response rating ([6]; 31 g ai/ha): 95 | Plant response rating, Flood, Barnyardgrass [7]: 75 | Plant response rating, Barnyardgrass [7, 20]: 20 | Plant response rating, Barnyardgrass [7, 21]: 50 | Barnyardgrass plant response rating ([7]; 31 g ai/ha): 0

COCCCn1c(-c2cccc(F)c2)ncc(C(=O)C2=C(O)C3CCC(C3)C2=O)c1=O (centres unmarked) [Compound 238]
Plant response rating, Ragweed [1, 11]: 70 | Plant response rating, Ragweed [1, 17]: 75 | Plant response rating, Ragweed [1, 12]: 75 | Plant response rating, Ragweed [1, 25]: 75 | Plant response rating, Prickly Sida [2, 11]: 30 | Plant response rating, Prickly Sida [2, 17]: 30 | Plant response rating, Prickly Sida [2, 12]: 50 | Plant response rating, Prickly Sida [2, 25]: 65 | Plant response rating, Spanishneedles [3, 11]: 65 | Plant response rating, Spanishneedles [3, 17]: 70 | Plant response rating, Spanishneedles [3, 12]: 70 | Plant response rating, Spanishneedles [3, 25]: 75 | Plant response rating, Russian Thistle [4, 11]: 30 | Plant response rating, Russian Thistle [4, 17]: 40 | Plant response rating, Russian Thistle [4, 12]: 50 | Plant response rating, Russian Thistle [4, 25]: 50 | Plant response rating, Purslane [5, 11]: 60 | Plant response rating, Purslane [5, 17]: 60 | Plant response rating, Purslane [5, 12]: 60 | Plant response rating, Purslane [5, 25]: 60 | Plant response rating, Flood, Ducksalad [6]: 100 | Plant response rating, Ducksalad [6, 20]: 40 | Plant response rating, Ducksalad [6, 21]: 80 | Ducksalad plant response rating ([6]; 31 g ai/ha): 0 | Plant response rating, Flood, Barnyardgrass [7]: 40 | Plant response rating, Barnyardgrass [7, 20]: 0 | Plant response rating, Barnyardgrass [7, 21]: 30 | Barnyardgrass plant response rating ([7]; 31 g ai/ha): 0

CCCCn1c(-c2cc(F)cc(F)c2)ncc(C(=O)C2=C(O)C3CCC(C3)C2=O)c1=O (centres unmarked) [Compound 245]
Plant response rating, Ragweed [1, 11]: 70 | Plant response rating, Ragweed [1, 17]: 75 | Plant response rating, Ragweed [1, 12]: 75 | Plant response rating, Ragweed [1, 25]: 75 | Plant response rating, Prickly Sida [2, 11]: 30 | Plant response rating, Prickly Sida [2, 17]: 50 | Plant response rating, Prickly Sida [2, 12]: 50 | Plant response rating, Prickly Sida [2, 25]: 70 | Plant response rating, Spanishneedles [3, 11]: 65 | Plant response rating, Spanishneedles [3, 17]: 70 | Plant response rating, Spanishneedles [3, 12]: 70 | Plant response rating, Spanishneedles [3, 25]: 75 | Plant response rating, Russian Thistle [4, 11]: 25 | Plant response rating, Russian Thistle [4, 17]: 60 | Plant response rating, Russian Thistle [4, 12]: 60 | Plant response rating, Russian Thistle [4, 25]: 70 | Plant response rating, Purslane [5, 11]: 0 | Plant response rating, Purslane [5, 17]: 5 | Plant response rating, Purslane [5, 12]: 30 | Plant response rating, Purslane [5, 25]: 30 | Plant response rating, Flood, Ducksalad [6]: 100 | Plant response rating, Ducksalad [6, 20]: 100 | Plant response rating, Ducksalad [6, 21]: 100 | Ducksalad plant response rating ([6]; 31 g ai/ha): 100 | Plant response rating, Flood, Barnyardgrass [7]: 65 | Plant response rating, Barnyardgrass [7, 20]: 0 | Plant response rating, Barnyardgrass [7, 21]: 40 | Barnyardgrass plant response rating ([7]; 31 g ai/ha): 0 | Plant response rating, Sunflower [8, 22]: 45 | Plant response rating, Sunflower [8, 23]: 70 | Plant response rating, Sunflower [8, 24]: 80 | Sunflower plant response rating ([8]; 250 g ai/ha, 0 to 100 scale): 95 | Plant response rating, Galium [9, 22]: 20 | Plant response rating, Galium [9, 23]: 60 | Plant response rating, Galium [9, 24]: 95 | Galium plant response rating ([9]; 250 g ai/ha, 0 to 100 scale): 95 | Plant response rating, Nightshade [10, 22]: 98 | Plant response rating, Nightshade [10, 23]: 100 | Plant response rating, Nightshade [10, 24]: 100 | Nightshade plant response rating ([10]; 250 g ai/ha, 0 to 100 scale): 100
